{
  "source": "patent US20200338039A1",
  "about": "“METHODS AND MATERIALS FOR ASSESSING BIOLOGICAL AGE AND SLOWING THE PROGRESS OF EXCESSIVE BIOLOGICAL AGING” (The Scripps Research Institute, priority 2017, published 2020)",
  "key": {"mice, 85 weeks of age": {"tested_on": "mice, 85 weeks of age", "experiment": "Late-life fisetin diet in aged mice: lifespan, tissue function, histopathology", "assay_type": "in vivo, mouse", "settings": "diet containing 500 ppm fisetin from 85 weeks of age", "description": "At 85-weeks of age (>20 mth), male and female mice were administered a diet containing 500 ppm (500 mg/kg) fisetin or fed a control diet with no drug. n=8-9 mice per group. In the treatment group, median lifespan was increased 17% and maximum lifespan increased 12%. Log rank (Mantel-Cox) test. […] Levels of MCP-1 were measured in the serum of these mice by ELISA. n=5 mice per group. One-way ANOVA with Tukey's multiple comparison test. Values represented as the mean SEM, ***p<0.001, ****p<0.0001. Therefore, circulating levels of MCP-1 correlate with drug-induced improvements in health and lifespan (FIG. 12)."}, "C57BL/6J mice": {"tested_on": "C57BL/6J mice", "experiment": "Composite lesion scores (geropathology grading, histology) in old mice on rapamycin diet", "assay_type": "in vivo, mouse", "settings": "two year-old C57BL/6J mice; rapamycin diet 14 ppm females / 42 ppm males for two months; average", "source_text": "Two year-old C57BL/6J mice were fed a diet containing rapamycin (14 ppm for females or 42 ppm for males) or a control diet for two months. […] In addition, rapamycin attenuated composite lesion scores in kidneys (FIG. 7), liver, and lungs of these mice by an average of 40, 41, and 29 percent, respectively.\nTwo year old C57BL/6J mice were obtained from the NIA Rodent Colony and treated with encapsulated rapamycin (Rapamycin Holdings, San Antonio Tex.) at 14 ppm for females and 42 ppm for males, or control (encapsulated only) diet for 8 weeks. Mice were sacrificed at 26 months and serum collected preceding necropsy. Ercc1^−/Δ mice were treated with Dasatinib and Quercetin as described elsewhere (see, e.g., Zhu et al., 2015 Aging cell. 14(4):644-658). Briefly, Ercc1^−/Δ mice were treated weekly with a combination of Dasatinib (5 mg/kg) and Quercetin (50 mg/kg) starting at 4-6 weeks of age. Therapeutics were administered in 10% PEG400 by oral gavage. Litters with multiple Ercc1^−/Δ mice were used to enable comparison of sibling pairs that were treated with therapeutic vs vehicle only. Mice (n=5-6 per group) were sacrificed at 16 weeks and serum collected by cardiac puncture.\nMouse tissues were collected at necropsy and placed in 10% buffered formalin for 48 hours, transferred to 70% alcohol, and subsequently processed into paraffin blocks for sectioning and hematoxylin and eosin staining. Histology slides were validated for age-related lesions by a veterinary pathologist and scored for lesion severity to create a composite lesion score for age-related renal pathology in each animal (see, e.g., Ladiges 2016 Pathobiol Aging Age Relat Dis. 6:31478)."}, "[1]": {"settings": "male and female mice, vs control diet"}},
  "data": [
    {"smiles": "O=c1c(O)c(-c2ccc(O)c(O)c2)oc2cc(O)ccc12", "note": "[fisetin]", "values": [
      {"measurement": "age-related histopathology", "setting": "mice, 85 weeks of age", "value": "decreased in multiple organs"},
      {"measurement": "tissue function", "setting": "mice, 85 weeks of age", "value": "improved"},
      {"measurement": "increase in maximum lifespan", "setting": "mice, 85 weeks of age; [1]", "value": 12, "unit": "%"},
      {"measurement": "increase in median lifespan", "setting": "mice, 85 weeks of age; [1]", "value": 17, "unit": "%"}
    ]},
    {"smiles": "CO[C@H]1C[C@@H]2CC[C@@H](C)[C@@](O)(O2)C(=O)C(=O)N2CCCC[C@H]2C(=O)O[C@H]([C@H](C)C[C@@H]2CC[C@@H](O)[C@H](OC)C2)CC(=O)[C@H](C)/C=C(\\C)[C@@H](O)[C@@H](OC)C(=O)[C@H](C)C[C@H](C)/C=C/C=C/C=C/1C", "note": "[rapamycin]", "values": [
      {"measurement": "attenuation of composite lesion score, kidneys", "setting": "C57BL/6J mice", "value": 40, "unit": "%"},
      {"measurement": "attenuation of composite lesion score, liver", "setting": "C57BL/6J mice", "value": 41, "unit": "%"},
      {"measurement": "attenuation of composite lesion score, lungs", "setting": "C57BL/6J mice", "value": 29, "unit": "%"}
    ]}
  ]
}
